Results taken from US20230089073A1 (Carmot Therapeutics, Inc., priority 2021, published 2023).

Biological target: T1, human GLP-1 receptor (Homo sapiens, UniProt P43220)
T1 construct: expressed in transfected cells
Test: GLP-1R cAMP Assay
Type: cell-based
Conditions: cAMP accumulation in CHO cells stably overexpressing the human GLP-1 receptor; 30 min treatment; HitHunter cAMP kit; read-out: EC50
Outline: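 CHO cells stably overexpressing human GLP-1R, 10,000 cells/well, treated with compound in 20-point dose response in triplicate for 30 min. cAMP accumulation read by enzyme-complementation luminescence after lysis and overnight incubation; dose-response curves fitted.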

T1 sequence (P43220 24-463): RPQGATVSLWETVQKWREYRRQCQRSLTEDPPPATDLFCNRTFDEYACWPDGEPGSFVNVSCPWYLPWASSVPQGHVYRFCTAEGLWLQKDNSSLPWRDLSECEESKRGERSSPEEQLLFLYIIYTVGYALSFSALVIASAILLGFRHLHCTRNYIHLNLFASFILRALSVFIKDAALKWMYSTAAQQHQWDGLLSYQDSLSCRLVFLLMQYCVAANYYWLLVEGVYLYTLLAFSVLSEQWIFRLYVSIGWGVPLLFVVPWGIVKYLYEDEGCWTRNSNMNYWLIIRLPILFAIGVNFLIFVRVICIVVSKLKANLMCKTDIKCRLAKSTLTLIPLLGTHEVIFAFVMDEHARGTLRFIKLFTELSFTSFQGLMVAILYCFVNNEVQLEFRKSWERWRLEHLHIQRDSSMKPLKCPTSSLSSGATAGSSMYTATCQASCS

CCn1cncc1Cn1c(CN2CCC(CF)(Cc3ccnc(COc4ccc(Cl)cc4Cl)c3)CC2)nc2ccc(C(=O)O)cc21 [Example 164, 2-((4-((2-((2,4-Dichlorophenoxy)methyl)pyridin-4-yl)methyl)-4-(fluoromethyl)piperidin-1-yl)methyl)-1-((1-ethyl-1H-imidazol-5-yl)methyl)-1H-benzo[d]imidazole-6-carboxylic acid] was tested, and the EC50 was < 50 nM.
In the case of O=C(O)c1ccc2nc(CN3CCC(Oc4cccc(COc5ccc(Cl)cc5F)n4)CC3)n(Cc3ncco3)c2c1 [Compound 268, 2-{[4-({6-[(4-chloro-2-fluorophenoxy)methyl]pyridin-2-yl}oxy)piperidin-1-yl]methyl}-1-[(1,3-oxazol-2-yl)methyl]-1H-1,3-benzodiazole-6-carboxylic acid], the EC50 is reported as < 50 nM.
N#Cc1ccc(COc2cccc(C3CCN(C(=O)c4ccc(-c5nnn[nH]5)cn4)CC3)n2)c(F)c1 [Compound 82, 3-fluoro-4-{[(6-{1-[5-(1H-1,2,3,4-tetrazol-5-yl)pyridine-2-carbonyl]piperidin-4-yl}pyridin-2-yl)oxy]methyl}benzonitrile] was tested, and the EC50 was > 500 nM.
O=C(c1ccc(-c2nnn[nH]2)nc1)N1CCN(Cc2ccc(COc3ccc(Cl)cc3Cl)o2)CC1 [Compound 97, 1-({5-[(2,4-dichlorophenoxy)methyl]furan-2-yl}methyl)-4-[6-(1H-1,2,3,4-tetrazol-5-yl)pyridine-3-carbonyl]piperazine] was tested, and the EC50 was > 500 nM.
With C[C@H]1C[C@@H](Oc2ccnc(COc3ccc(C#N)cc3F)c2)CCN1Cc1nc2c(F)cc(C(=O)O)cc2n1C[C@@H]1CCO1 [Compound 501, 2-{[(2S,4S)-4-({2-[(4-cyano-2-fluorophenoxy)methyl]pyridin-4-yl}oxy)-2-methylpiperidin-1-yl]methyl}-4-fluoro-1-{[(2S)-oxetan-2-yl]methyl}-1H-1,3-benzodiazole-6-carboxylic acid] the EC50 was < 50 nM.
Work on Cc1ccc2oc3cc(C(=O)N4CCN(Cc5nc6ccc(C(=O)O)cc6n5C[C@@H]5CCO5)CC4)ccc3c(=O)c2c1 [Example 44, (S)-2-((4-(7-Methyl-9-oxo-9H-xanthene-3-carbonyl)piperazin-1-yl)methyl)-1-(oxetan-2-ylmethyl)-1H-benzo[d]imidazole-6-carboxylic acid] yielded an EC50 of 50 to 500 nM.
For O=C(O)c1ccc2nc(CN3CCC(Cc4ccc(F)c(COc5ccc(Cl)cc5Cl)c4)CC3)n(C[C@@H]3CCO3)c2c1 [Compound 162, 2-{[4-({3-[(2,4-dichlorophenoxy)methyl]-4-fluorophenyl}methyl)piperidin-1-yl]methyl}-1-{[(2S)-oxetan-2-yl]methyl}-1H-1,3-benzodiazole-6-carboxylic acid], the EC50 was < 50 nM.
For N#Cc1ccc(OCc2cc(OC3CCN(Cc4nc5ccc(C(=O)O)cc5n4C[C@@H]4CCO4)CC3)c(F)cn2)c(F)c1 [Example 367, (S)-2-((4-((2-((4-Cyano-2-fluorophenoxy)methyl)-5-fluoropyridin-4-yl)oxy)piperidin-1-yl)methyl)-1-(oxetan-2-ylmethyl)-1H-benzo[d]imidazole-6-carboxylic acid], the EC50 was < 50 nM.
In the case of O=C(O)c1cc(F)c2nc(CN3CCC(N(CC4CC4)c4ccnc(COc5ccc(Cl)cc5F)n4)CC3)n(C[C@@H]3CCO3)c2c1 [Compound 511, 2-{[4-({2-[(4-chloro-2-fluorophenoxy)methyl]pyrimidin-4-yl}(cyclopropylmethyl)amino)piperidin-1-yl]methyl}-4-fluoro-1-{[(2S)-oxetan-2-yl]methyl}-1H-1,3-benzodiazole-6-carboxylic acid], the EC50 is reported as < 50 nM.
For N#Cc1ccc(OCc2ccc(C(=O)N3CCN(Cc4nc5ccc(C(=O)O)cc5n4C[C@@H]4CCO4)CC3)o2)c(F)c1 [Compound 37, 2-[(4-{5-[(4-cyano-2-fluorophenoxy)methyl]furan-2-carbonyl}piperazin-1-yl)methyl]-1-{[(2S)-oxetan-2-yl]methyl}-1H-1,3-benzodiazole-6-carboxylic acid], the EC50 was > 500 nM.
With O=C(O)c1ccc2nc(CN3CCC(Oc4ccnc(COc5ccc(C(F)F)cc5F)n4)CC3)n(C[C@@H]3CCO3)c2c1 [Compound 311] the EC50 was < 50 nM.
In the case of N#Cc1ccc(OCc2cc(OC3CCN(Cc4nc5c(F)cc(C(=O)O)cc5n4C[C@@H]4CCO4)CC3)c(F)cn2)c(F)c1 [Compound 478, 2-{[4-({2-[(4-cyano-2-fluorophenoxy)methyl]-5-fluoropyridin-4-yl}oxy)piperidin-1-yl]methyl}-4-fluoro-1-{[(2S)-oxetan-2-yl]methyl}-1H-1,3-benzodiazole-6-carboxylic acid], the EC50 is reported as < 50 nM.
CCn1cncc1Cn1c(CN2CCC(Cc3ccc(COc4ccc(Cl)cc4Cl)o3)CC2)nc2ccc(C(=O)O)cc21 [Compound 109, 2-{[4-({5-[(2,4-dichlorophenoxy)methyl]furan-2-yl}methyl)piperidin-1-yl]methyl}-1-[(1-ethyl-1H-imidazol-5-yl)methyl]-1H-1,3-benzodiazole-6-carboxylic acid] was tested, and the EC50 was < 50 nM.
In the case of O=C(O)c1ccc2nc(CN3CCC(Oc4ccnc(COc5ccc(Cl)cc5)c4)CC3)n(C[C@@H]3CCO3)c2c1 [Compound 352], the EC50 is reported as < 50 nM.
For CCn1cncc1Cn1c(CN2CCC(Cc3cnc(COc4ccc(Cl)cc4Cl)o3)CC2)nc2ccc(C(=O)O)nc21 [Compound 125, 2-{[4-({2-[(2,4-dichlorophenoxy)methyl]-1,3-oxazol-5-yl}methyl)piperidin-1-yl]methyl}-3-[(1-ethyl-1H-imidazol-5-yl)methyl]-3H-imidazol[4,5-b]pyridine-5-carboxylic acid], the EC50 was < 50 nM.
In the case of CCn1cncc1Cn1c(CN2CCC(Oc3cccnc3COc3ccc(Cl)cc3Cl)CC2)nc2ccc(C(=O)O)cc21 [Example 271, 2-((4-((2-((2,4-Dichlorophenoxy)methyl)pyridin-3-yl)oxy)piperidin-1-yl)methyl)-1-((1-ethyl-1H-imidazol-5-yl)methyl)-1H-benzo[d]imidazole-6-carboxylic acid], the EC50 is reported as 50 to 500 nM.
For CCn1cncc1Cn1c(CN2CCN(C(=O)c3cccc(N(C)c4ccc(C)cc4)c3)CC2)nc2ccc(C(=O)O)cc21 [Example 46, 1-((1-Ethyl-1H-imidazol-5-yl)methyl)-2-((4-(3-(methyl(p-tolyl)amino)benzoyl)piperazin-1-yl)methyl)-1H-benzo[d]imidazole-6-carboxylic acid], the EC50 was 50 to 500 nM.
With N#Cc1ccc(COc2cccc(N3CCN(C(=O)c4ccc(-c5nnn[nH]5)nc4)CC3)n2)c(F)c1 [Example 92, 4-(((6-(4-(6-(1H-Tetrazol-5-yl)nicotinoyl)piperazin-1-yl)pyridin-2-yl)oxy)methyl)-3-fluorobenzonitrile] the EC50 was 50 to 500 nM.
O=C(O)c1ccc2nc(CN3CCC(Oc4ccnc(COc5ccc(F)cc5F)n4)CC3)n(C[C@@H]3CCO3)c2c1 [Compound 479, 2-{[4-({2-[(2,4-difluorophenoxy)methyl]pyrimidin-4-yl}oxy)piperidin-1-yl]methyl}-1-{[(2S)-oxetan-2-yl]methyl}-1H-1,3-benzodiazole-6-carboxylic acid] was tested, and the EC50 was < 50 nM.
For C[C@H]1C[C@@H](Oc2ccnc(COc3ccc(C4CC4)cc3C#N)n2)CCN1Cc1nc2ccc(C(=O)O)cc2n1C[C@@H]1CCO1 [Compound 510, 2-(((2S,4S)-4-((2-((2-cyano-4-cyclopropylphenoxy)methyl)pyrimidin-4-yl)oxy)-2-methylpiperidin-1-yl)methyl)-1-(((S)-oxetan-2-yl)methyl)-1H-benzo[d]imidazole-6-carboxylic acid], the EC50 was < 50 nM.
O=C(O)c1ccc2nc(CN3CCC(Oc4ccnc(COc5ccc(F)cc5C(F)(F)F)c4)CC3)n(C[C@@H]3CCO3)c2c1 [Compound 322] was tested, and the EC50 was < 50 nM.
With C[C@H]1C[C@@H](Oc2ccnc(COc3ccc(C#N)cc3Cl)n2)CCN1Cc1nc2ccc(C(=O)O)cc2n1C[C@@H]1CCO1 [Compound 477, 2-{[(2S,4S)-4-({2-[(2-chloro-4-cyanophenoxy)methyl]pyrimidin-4-yl}oxy)-2-methylpiperidin-1-yl]methyl}-1-{[(2S)-oxetan-2-yl]methyl}-1H-1,3-benzodiazole-6-carboxylic acid] the EC50 was < 50 nM.
For CCn1cncc1Cn1c(CN2CCC(Oc3cccc(COc4ccc(Cl)cc4C#N)n3)CC2)nc2ccc(C(=O)O)cc21 [Compound 246, 2-{[4-({6-[(4-chloro-2-cyanophenoxy)methyl]pyridin-2-yl}oxy)piperidin-1-yl]methyl}-1-[(1-ethyl-1H-imidazol-5-yl)methyl]-1H-1,3-benzodiazole-6-carboxylic acid], the EC50 was < 50 nM.
For CCn1cncc1Cn1c(CN2CCC(Cc3ccnc(COc4ccc(Cl)cc4Cl)c3)CC2)nc2ccc(C(=O)O)cc21 [Example 128, 2-((4-((2-((2,4-Dichlorophenoxy)methyl)pyridin-4-yl)methyl)piperidin-1-yl)methyl)-1-((1-ethyl-1H-imidazol-5-yl)methyl)-1H-benzo[d]imidazole-6-carboxylic acid], the EC50 was < 50 nM.
With CCn1cncc1Cn1c(CN2CCC(Oc3cccc(COc4ccc(Cl)cc4C#N)c3)CC2)nc2ccc(C(=O)O)cc21 [Compound 215, 2-[(4-{3-[(4-chloro-2-cyanophenoxy)methyl]phenoxy}piperidin-1-yl)methyl]-1-[(1-ethyl-1H-imidazol-5-yl)methyl]-1H-1,3-benzodiazole-6-carboxylic acid] the EC50 was < 50 nM.
For O=C(O)c1ccc2nc(CN3CCC(Oc4cccc(COc5cccc(Cl)c5Cl)c4)CC3)n(C[C@@H]3CCO3)c2c1 [Compound 243, 2-[(4-{3-[(2,3-dichlorophenoxy)methyl]phenoxy}piperidin-1-yl)methyl]-1-{[(2S)-oxetan-2-yl]methyl}-1H-1,3-benzodiazole-6-carboxylic acid], the EC50 was < 50 nM.
For Cc1ccc(OCc2ccc(C(=O)N3CCN(Cc4nc5ccc(C(=O)O)cc5n4C[C@@H]4CCO4)CC3)o2)c(C)c1 [Compound 41, 2-[(4-{5-[(2,4-dimethylphenoxy)methyl]furan-2-carbonyl}piperazin-1-yl)methyl]-1-{[(2S)-oxetan-2-yl]methyl}-1H-1,3-benzodiazole-6-carboxylic acid], the EC50 was 50 to 500 nM.
